Data: PubChem BioAssay (NCI)
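Compound exposure: 48 hours, 5 concentrations, 96-well plates. TGI is the concentration that stops growth completely.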

Tests used:
Experiment in all cases: DTP human tumour cell line panel, 48 h
OVCAR-5 ovarian = tested on: OVCAR-5 ovarian
A549 NSCLC = tested on: A549 NSCLC
SF-539 CNS = tested on: SF-539 CNS
NCI-H23 lung = tested on: NCI-H23 lung
COLO 205 colon = tested on: COLO 205 colon
T-47D breast = tested on: T-47D breast
SF-295 CNS = tested on: SF-295 CNS
NCI-H226 lung = tested on: NCI-H226 lung
HCT-116 colon = tested on: HCT-116 colon
MALME-3M melanoma = tested on: MALME-3M melanoma
SK-MEL-5 melanoma = tested on: SK-MEL-5 melanoma
SN12C renal = tested on: SN12C renal
MDA-N = tested on: MDA-N
SNB-19 CNS = tested on: SNB-19 CNS
U251 CNS = tested on: U251 CNS
ACHN renal = tested on: ACHN renal
A498 renal = tested on: A498 renal
IGROV1 ovarian = tested on: IGROV1 ovarian
HS 578T breast = tested on: HS 578T breast
OVCAR-8 ovarian = tested on: OVCAR-8 ovarian
HOP-92 NSCLC = tested on: HOP-92 NSCLC
OVCAR-4 ovarian = tested on: OVCAR-4 ovarian
MCF7 breast = tested on: MCF7 breast
CCRF-CEM leukemia = tested on: CCRF-CEM leukemia
K-562 leukemia = tested on: K-562 leukemia
KM12 colon = tested on: KM12 colon
UO-31 renal = tested on: UO-31 renal
HT29 colon = tested on: HT29 colon
SK-OV-3 ovarian = tested on: SK-OV-3 ovarian
UACC-257 melanoma = tested on: UACC-257 melanoma
RXF 393 renal = tested on: RXF 393 renal
NCI-H522 lung = tested on: NCI-H522 lung
EKVX NSCLC = tested on: EKVX NSCLC
NCI/ADR-RES ovarian = tested on: NCI/ADR-RES ovarian
NCI-H460 lung = tested on: NCI-H460 lung
SF-268 CNS = tested on: SF-268 CNS
OVCAR-3 ovarian = tested on: OVCAR-3 ovarian
DU-145 prostate = tested on: DU-145 prostate
MDA-MB-231 breast = tested on: MDA-MB-231 breast
MOLT-4 leukemia = tested on: MOLT-4 leukemia
SK-MEL-2 melanoma = tested on: SK-MEL-2 melanoma
786-0 renal = tested on: 786-0 renal
BT-549 breast = tested on: BT-549 breast
HOP-62 NSCLC = tested on: HOP-62 NSCLC
TK-10 renal = tested on: TK-10 renal
PC-3 prostate = tested on: PC-3 prostate
SW-620 colon = tested on: SW-620 colon
M14 melanoma = tested on: M14 melanoma
UACC-62 melanoma = tested on: UACC-62 melanoma
MDA-MB-435 = tested on: MDA-MB-435
CAKI-1 renal = tested on: CAKI-1 renal
LOX IMVI melanoma = tested on: LOX IMVI melanoma
HCC-2998 colon = tested on: HCC-2998 colon
SNB-75 CNS = tested on: SNB-75 CNS
RPMI-8226 leukemia = tested on: RPMI-8226 leukemia
HCT-15 colon = tested on: HCT-15 colon

O=C1C=CC(=O)C(CNc2ccc(C(=O)OC34CC5CC(CC(C5)C3)C4)cc2)=C1Br
TGI (OVCAR-5 ovarian): 38 µM | TGI (A549 NSCLC): 49.3 µM | TGI (SF-539 CNS): 5.6 µM | TGI (NCI-H23 lung): 23.9 µM | TGI (COLO 205 colon): 24.1 µM | TGI (T-47D breast): 18.5 µM | TGI (SF-295 CNS): 33.5 µM | TGI (NCI-H226 lung): 32.4 µM | TGI (HCT-116 colon): 27.1 µM | TGI (MALME-3M melanoma): 15.5 µM | TGI (SK-MEL-5 melanoma): 22 µM | TGI (SN12C renal): 34.1 µM | TGI (MDA-N): 33 µM | TGI (SNB-19 CNS): 35.4 µM | TGI (U251 CNS): 38.2 µM | TGI (ACHN renal): 28.4 µM | TGI (A498 renal): 33.1 µM | TGI (IGROV1 ovarian): 15.6 µM | TGI (HS 578T breast): 27.2 µM | TGI (OVCAR-8 ovarian): 23.9 µM | TGI (HOP-92 NSCLC): 12.3 µM | TGI (OVCAR-4 ovarian): 22.6 µM | TGI (MCF7 breast): 48.1 µM | TGI (CCRF-CEM leukemia): 7.41 µM | TGI (K-562 leukemia): 32.7 µM | TGI (KM12 colon): 19.7 µM | TGI (UO-31 renal): 21.2 µM | TGI (HT29 colon): 16.8 µM | TGI (SK-OV-3 ovarian): 34.2 µM | TGI (UACC-257 melanoma): 29.1 µM | TGI (RXF 393 renal): 17.5 µM | TGI (NCI-H522 lung): 1.44 µM | TGI (EKVX NSCLC): 20.5 µM | TGI (NCI/ADR-RES ovarian): 18.4 µM | TGI (NCI-H460 lung): 29.4 µM | TGI (SF-268 CNS): 27.4 µM | TGI (OVCAR-3 ovarian): 39.4 µM | TGI (DU-145 prostate): 94.8 µM | TGI (MDA-MB-231 breast): 24.3 µM | TGI (MOLT-4 leukemia): 25.5 µM | TGI (SK-MEL-2 melanoma): 38.2 µM | TGI (786-0 renal): 28.3 µM | TGI (BT-549 breast): 20.5 µM | TGI (HOP-62 NSCLC): 62.2 µM | TGI (TK-10 renal): 28.6 µM | TGI (PC-3 prostate): 19 µM | TGI (SW-620 colon): 68.1 µM | TGI (M14 melanoma): 60 µM | TGI (UACC-62 melanoma): 21.6 µM | TGI (MDA-MB-435): 65.5 µM | TGI (CAKI-1 renal): 12.5 µM | TGI (LOX IMVI melanoma): 23.4 µM | TGI (HCC-2998 colon): 28.3 µM | TGI (SNB-75 CNS): 19.7 µM | TGI (RPMI-8226 leukemia): 33.4 µM | TGI (HCT-15 colon): 21.4 µM
